Experimental findings from publication PMC12851007 (Angewandte Chemie (International Ed. in English), 2025) are described below.

Assay [1] can be described thus: CX4/LCG supramolecular tandem membrane assay, POPC vesicles. Type of assay: in vitro ADME. Conditions: n = 1; for EC50: pH 7.5, error = SD of fit; for Y30µM, membrane activity, CX4/LCG assay: 30 µM peptide, 25 µM POPC⸧CX4/LCG-LUVs (inside 700 µM CX4, 500 µM LCG) in 10 mM Hepes, pH 7.0, 25 °C, fluorescence λexc 369/λem 502 nm, peptide at 60 s, TX-100/protamine at 600 s, fractional activity. As to the method:
Membrane Activity M easurements
Vesicle preparation. 100 µ L of a solution of 25 mg/ml of POPC in chloroform or 200 µ L of a solution of 25 mg/ml of EYPC in chloroform was purged with nitrogen and dried overnight under hi gh vacuum. The thin lipid film was rehydrated with 1 ml reh ydrati on buffer (= inside buffer, see Tabl e S2 ) b y agitation at room temperature for 30min and then subjected to 2 0 freeze- th aw c ycles (freezing in liquid nitro gen and thawing at 40 °C). […]
Ta b l e S 2. Combinations of lipids and inside and outside buffer for CX4/LCG -LUVs.
No. Lipid Inside buffer = rehydration buffer Outside buffer
(4) POPC 10 mM Hepes, 700 µM CX4, 500 µM LCG, 10 mM Hepes buffer, 175 mM glucose, pH 7.5 [a] 175 mM glucose, pH 7.5 [a]
[a] Glucose b uffers (183 mOsm/L at 25 °C) were used within one week after preparation.
Vesicle quality control. T o ensure the absence of the CX4/ LCG reporter pair in the ex travesicular ph ase, 20 µL of the collected liposome fr action w as diluted to 2 ml with outside buffer and the fluor escen ce (λ exc = 369 nm; λ em = 502 nm) was recorded during the addition of […]
The final lipid content in the liposome suspension after p repa rat ion and separ ation was d etermined b y NMR as p reviousl y reported. Assay protocol. An appropriate volume of the liposome stock solutions was diluted to 2m L with outside buffer in a 10 ×10 mm quartz glass cuvette to afford a phospholipid concentration of 25 µM. The cuvette was placed into a thermostatted fluorimeter sample holder at 25.0 °C and gentl y stirred at 300 rpm. Subsequently, the time-dependent change in fluorescence intensity (λ exc = 369 nm; λ em = 502 nm) was record ed during addition of 20 µ L of peptide stock solutions of varying concentrations at 60 s. At 600 s, 20µ L o f a solution containing 1.6% (wt/vol) TX-100 and 1.5 mM protamine was added for calibration to affo rd 0.016% (wt/vol) TX-100 and 15 µM protamine final concent rations.
Time-dep endent fluores cence intensit y traces, I (t), were subsequentl y normalized to fractional intensities, If(t), using equation (1). Therein, I 0 is the intensity just before addition of peptide and I ∞ is the constant intensit y after addition of the calibration cockt ail.
IIf (tt ) = II (tt )−II0II∞ − II0 (1)
The concentration-dependent fractional intensities just before the addition of the calibration cocktail, If, were then normalized to fractional membrane activities, Y, using equation (2).
Therein, If,0 is the fractional intensit y just before addition of the calibration cocktail in absence of peptide and I f,∞ is the constant fractional intensity after addition of the calibration cocktail.
YY = IIf − IIf,0IIf,∞ − IIf,0 (2)
The fractional membrane activities, Y, were subsequently plotted against the peptide concentration, c, and analysed using the Hill equation (3) to obtain the effective molar concentration, EC50, and the Hill coefficient, n. Y0 and Y ma x are the fractional membrane activities in absen ce o f p eptide and at max imal peptide concent rations. For peptides with too little activity to determine Y ma x ex perimentall y, Y max was fixed at 1.0 during fitting. […]

Assay [2] in a line: Dual-channel assay, CF channel, POPC/POPS vesicles. Type of assay: biochemical. The settings on record: 12.5 µM POPC/POPS(9:1)⸧CX4/LCG-LUVs and 12.5 µM POPC/POPS(9:1)⸧CF-LUVs in 10 mM Hepes, 175 mM glucose, pH 7.5; error = SD of fit, n = 1. From the text:
Ultimately, we have also tested the new conditions with vesicles containing the anionic lipid 1‐palmitoyl‐2‐oleoyl‐phosphatidylserine (POPS) with TP10, Pep‐1, and the LRLLRW peptide (Figures S41–S43 and Table S11). The results confirmed that the absolute activity as well as the difference between the CF dye efflux assay and the tandem membrane assay was nearly unaffected by the presence of 10% POPS with the only exception that the membrane‐translocating ability of TP10 was enhanced.
Assay protocol. An appropriate volume of the liposome stock solutions was diluted to 2 mL with outside buffer in a 10 ×10 mm quartz glass cuvette to afford a phospholipid concentration of 25 µM. The cuvette was placed into a thermostatted fluorimeter sample holder and gentl y stirred at 300 rpm at (25.0± 0.1) °C. Subsequentl y, the time-dependent change in fluorescence intensity (C F: λ exc = 492 nm, λ em = 517 nm) was recorded during addition of 20 µL peptide stock solution of var ying concentrations at 60 s and 20µ L of a calibration cocktail (1. 6% […]
Time-dep endent fluores cence intensit y traces, I (t), were subsequentl y normalized to fractional intensities, If(t), using equation (1) and the concentration- dependent fractional intensities just before the addition of th e calibration co cktail, I f, w ere then normaliz ed to fr actional membran e activities, Y, using equation (2). […]
Vesicles w ere prep ared a s described abov e (se e en try (4) in Table S2 and entry (3) in Table S3) and eluted with freshl y prepared 10 mM Hepes, 175mM glucos e, pH 7.5 i n the size exclusion chromatograph y. […] The fluorescence intensity w as simultaneous l y r eco rded in the CF chann el ( λ exc = 525 nm, λ em = 545 nm) and in the LCG channel ( λ exc = 369 nm, λ em = 475 nm) with an ex citation slit width of 5 nm and an emission slit width of 5 n m during addition of 20 µL peptide stock solution of varying concentrations at 60 s and 20 µL of a calibration

[3] abbreviates: 25 µM lipid, POPC⊃CX4/LCG-LUVs, 10 mM Hepes, fractional activity at 590 s, Hill fit, read-out: EC50, CX4/LCG assay, POPC.
Setting [4] is: single-channel, 25 µM POPC⸧CX4/LCG-LUVs, inside 10 mM Hepes, 700 µM CX4, 500 µM LCG, 175 mM glucose, outside 10 mM Hepes, 175 mM glucose, read-out: EC50, CX4/LCG assay in glucose-containing buffer.

Molecules are shown by their SMILES. Where a SMILES comes first, the peptide text is derived from it.

Consider `CC[C@H](C)[C@H](NC(=O)[C@H](CCCCN)NC(=O)[C@@H](NC(=O)[C@@H](N)CCC(N)=O)[C@@H](C)CC)C(=O)N[C@@H](Cc1c[nH]c2ccccc12)C(=O)N[C@@H](Cc1ccccc1)C(=O)N[C@@H](CCC(N)=O)C(=O)N[C@@H](CC(N)=O)C(=O)N[C@@H](CCCNC(=N)N)C(=O)N[C@@H](CCCNC(=N)N)C(=O)N[C@@H](CCSC)C(=O)N[C@@H](CCCCN)C(=O)N[C@@H](Cc1c[nH]c2ccccc12)C(=O)N[C@@H](CCCCN)C(=O)N[C@@H](CCCCN)C(=O)O` (H-QIKIWFQNRRMKWKK-OH), for which the values for the EC50 in assay [1] (setting [3]) and in assay [1] (setting [4]) were 70 ± 13 µM and 140 ± 40 µM, respectively. In addition, in assay [1], the “Y30µM, membrane activity, CX4/LCG assay” value was 0.49.

As to `CC(C)C[C@H](NC(=O)[C@H](CC(C)C)NC(=O)[C@H](CCCNC(=N)N)NC(=O)[C@@H](N)CC(C)C)C(=O)N[C@@H](CCCNC(=N)N)C(=O)N[C@@H](Cc1c[nH]c2ccccc12)C(N)=O` [LRLLRW] (H-LRLLRW-NH2), the “Y30µM, membrane activity, CX4/LCG assay” value in assay [1] stood at 0.53. Further, the EC50 was 14 ± 2 µM in assay [1] (setting [4]) and 28 ± 10 µM in assay [2].

`CC(C)[C@H](NC(=O)[C@H](CCCCN)NC(=O)[C@H](CCCNC(=N)N)NC(=O)[C@H](CCCCN)NC(=O)[C@H](CCCCN)NC(=O)[C@H](CCCCN)NC(=O)[C@@H]1CCCN1C(=O)[C@H](CCC(N)=O)NC(=O)[C@H](CO)NC(=O)[C@H](Cc1c[nH]c2ccccc12)NC(=O)[C@H](CC(=O)O)NC(=O)[C@@H](NC(=O)[C@H](Cc1c[nH]c2ccccc12)NC(=O)[C@H](Cc1c[nH]c2ccccc12)NC(=O)[C@@H](NC(=O)[C@H](CC(=O)O)NC(=O)[C@H](Cc1c[nH]c2ccccc12)NC(=O)[C@H](Cc1c[nH]c2ccccc12)NC(=O)[C@@H](NC(=O)[C@H](CC(=O)O)NC(=O)[C@@H](N)CCCCN)[C@@H](C)O)[C@@H](C)O)[C@@H](C)O)C(=O)O` [Pep‐1] (H-KDTWWDTWWTDWSQPKKKRKV-OH): the EC50 in assay [1] (setting [3]) turned out to be 32 ± 14 µM; in assay [1] (setting [4]), 4.5 ± 0.7 µM; in assay [2], 698 ± 55 µM. The “Y30µM, membrane activity, CX4/LCG assay” value in assay [1] was 0.67.

In the case of `CC[C@H](C)[C@H](NC(=O)[C@H](CCCCN)NC(=O)[C@H](CCCCN)NC(=O)[C@H](C)NC(=O)[C@H](CC(C)C)NC(=O)[C@H](C)NC(=O)[C@H](C)NC(=O)[C@H](CC(C)C)NC(=O)[C@H](C)NC(=O)[C@H](CCCCN)NC(=O)[C@H](CC(C)C)NC(=O)[C@H](CC(N)=O)NC(=O)[C@@H](NC(=O)[C@H](CCCCN)NC(=O)CNC(=O)[C@H](CC(C)C)NC(=O)[C@H](CC(C)C)NC(=O)[C@H](Cc1ccc(O)cc1)NC(=O)CNC(=O)[C@H](C)N)[C@@H](C)CC)C(=O)N[C@@H](CC(C)C)C(=O)O` [TP10], the “Y30µM, membrane activity, CX4/LCG assay” value in assay [1] is recorded as 0.88. Also, the EC50 in assay [1] (setting [4]) worked out at 1.7 ± 0.6 µM; in assay [2], 0.027 ± 0.002 µM.
